# Laboratory results taken from ChEMBL document CHEMBL1201862, “PubChem BioAssay data set” (2004).
# Active and inactive are the calls of the source.
# Key:
# [1] = biological target: T1, Short transient receptor potential channel 4 (Mus musculus, UniProt Q9QUQ5); assay: mouse TRPC4 channel activators, dose response, cell-based, HEK293 TRPC4/mu-opioid, Fluo-4 calcium (AID 434937); format: functional
# T1 sequence (Q9QUQ5 whole entry): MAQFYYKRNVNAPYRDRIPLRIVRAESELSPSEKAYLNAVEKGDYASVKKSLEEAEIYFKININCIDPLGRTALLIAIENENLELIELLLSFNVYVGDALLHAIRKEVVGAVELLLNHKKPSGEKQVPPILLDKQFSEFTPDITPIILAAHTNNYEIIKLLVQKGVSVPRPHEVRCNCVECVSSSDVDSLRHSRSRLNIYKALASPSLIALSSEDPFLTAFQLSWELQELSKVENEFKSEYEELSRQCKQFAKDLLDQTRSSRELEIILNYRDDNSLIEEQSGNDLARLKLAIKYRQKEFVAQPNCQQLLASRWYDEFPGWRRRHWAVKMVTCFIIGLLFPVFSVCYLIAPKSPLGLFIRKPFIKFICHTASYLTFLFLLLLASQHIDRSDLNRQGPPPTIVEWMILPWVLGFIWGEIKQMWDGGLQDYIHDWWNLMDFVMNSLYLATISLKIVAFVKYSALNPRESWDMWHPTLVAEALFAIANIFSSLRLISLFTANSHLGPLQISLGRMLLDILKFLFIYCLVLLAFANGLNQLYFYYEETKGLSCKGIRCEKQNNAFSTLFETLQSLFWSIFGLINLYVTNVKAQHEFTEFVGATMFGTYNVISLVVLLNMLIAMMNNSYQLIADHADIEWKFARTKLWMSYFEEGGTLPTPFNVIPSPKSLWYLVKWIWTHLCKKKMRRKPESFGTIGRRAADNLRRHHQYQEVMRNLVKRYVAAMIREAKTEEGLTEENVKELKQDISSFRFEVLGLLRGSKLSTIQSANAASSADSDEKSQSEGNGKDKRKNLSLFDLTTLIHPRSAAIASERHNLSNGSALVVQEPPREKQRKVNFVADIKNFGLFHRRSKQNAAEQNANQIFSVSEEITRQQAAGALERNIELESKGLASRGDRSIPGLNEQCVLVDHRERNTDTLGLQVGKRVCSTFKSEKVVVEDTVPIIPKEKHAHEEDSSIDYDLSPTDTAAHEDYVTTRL
# Cysteine protease ATG4B = biological target: T2, Cysteine protease ATG4B (Homo sapiens, UniProt Q9Y4P1); format: functional;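 also: Fluorescence-based dose-response confirmation assay measuring inhibition of ATG4B activity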
# T2 sequence (Q9Y4P1 whole entry): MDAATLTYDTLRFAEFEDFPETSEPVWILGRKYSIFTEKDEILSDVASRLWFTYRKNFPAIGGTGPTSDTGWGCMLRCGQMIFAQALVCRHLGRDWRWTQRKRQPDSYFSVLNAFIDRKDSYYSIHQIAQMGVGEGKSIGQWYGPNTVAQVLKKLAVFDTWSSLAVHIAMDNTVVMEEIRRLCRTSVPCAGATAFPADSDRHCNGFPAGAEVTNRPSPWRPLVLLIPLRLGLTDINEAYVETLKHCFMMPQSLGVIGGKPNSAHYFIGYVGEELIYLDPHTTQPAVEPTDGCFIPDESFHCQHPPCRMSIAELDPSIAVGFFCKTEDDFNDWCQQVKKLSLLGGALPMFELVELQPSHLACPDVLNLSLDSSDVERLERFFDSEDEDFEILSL
# Phospholipase A2 = Phospholipase A2 (Homo sapiens, UniProt P04054); format: functional;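 also: confirmatory dose-response counterscreen on phospholipase A2, testing hits that came from an ultra-high-throughput screen for ATG4B inhibitors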
# Phospholipase A2, sequence (P04054 whole entry, the tested form may be a part): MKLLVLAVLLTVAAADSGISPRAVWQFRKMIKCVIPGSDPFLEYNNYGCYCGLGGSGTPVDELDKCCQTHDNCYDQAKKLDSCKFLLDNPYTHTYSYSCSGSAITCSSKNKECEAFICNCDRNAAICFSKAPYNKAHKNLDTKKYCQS
# [2] = biological target: T3, Carboxy-terminal domain RNA polymerase II polypeptide A small phosphatase 1 (Homo sapiens, UniProt Q9GZU7); assay: inhibitors of CTDSP1, concentration-response testing, biochemical assay, absorbance-based, actives from ultra-high-throughput screening (AID 540297); format: functional
# T3 sequence (Q9GZU7 whole entry): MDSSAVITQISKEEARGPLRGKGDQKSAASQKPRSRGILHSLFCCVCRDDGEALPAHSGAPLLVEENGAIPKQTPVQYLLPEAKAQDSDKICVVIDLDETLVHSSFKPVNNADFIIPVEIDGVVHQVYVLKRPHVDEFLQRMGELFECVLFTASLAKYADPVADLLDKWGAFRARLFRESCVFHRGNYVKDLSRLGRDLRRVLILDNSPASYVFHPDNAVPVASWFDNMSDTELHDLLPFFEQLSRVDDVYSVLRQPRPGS
# Cytochrome P450 2C19 = Cytochrome P450 2C19 (Homo sapiens, UniProt P33261); assay: Cytochrome panel assay with activity outcomes. Panel member name: p450-cyp2c19 Compounds with AC50 equal or less than 10 uM are considered active; format: functional; settings: read-out: AC50
# Cytochrome P450 2C19, sequence (P33261 whole entry): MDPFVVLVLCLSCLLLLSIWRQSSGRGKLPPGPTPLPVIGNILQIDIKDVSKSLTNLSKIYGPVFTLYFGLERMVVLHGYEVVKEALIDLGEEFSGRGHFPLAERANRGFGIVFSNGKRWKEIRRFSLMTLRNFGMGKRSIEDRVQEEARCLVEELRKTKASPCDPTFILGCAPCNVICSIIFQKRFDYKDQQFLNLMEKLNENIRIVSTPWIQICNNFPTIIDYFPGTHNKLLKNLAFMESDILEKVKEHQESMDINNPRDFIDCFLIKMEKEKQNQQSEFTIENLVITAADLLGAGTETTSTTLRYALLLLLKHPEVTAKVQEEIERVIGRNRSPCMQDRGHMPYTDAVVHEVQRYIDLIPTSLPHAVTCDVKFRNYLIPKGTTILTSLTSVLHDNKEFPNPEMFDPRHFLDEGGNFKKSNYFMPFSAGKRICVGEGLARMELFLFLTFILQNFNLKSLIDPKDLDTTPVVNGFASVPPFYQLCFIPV
# Cytochrome P450 1A2 = biological target: T4, Cytochrome P450 1A2 (Homo sapiens, UniProt P05177);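 also: PubChem cytochrome P450 panel assay, CYP1A2 panel member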
# T4 sequence (P05177 whole entry): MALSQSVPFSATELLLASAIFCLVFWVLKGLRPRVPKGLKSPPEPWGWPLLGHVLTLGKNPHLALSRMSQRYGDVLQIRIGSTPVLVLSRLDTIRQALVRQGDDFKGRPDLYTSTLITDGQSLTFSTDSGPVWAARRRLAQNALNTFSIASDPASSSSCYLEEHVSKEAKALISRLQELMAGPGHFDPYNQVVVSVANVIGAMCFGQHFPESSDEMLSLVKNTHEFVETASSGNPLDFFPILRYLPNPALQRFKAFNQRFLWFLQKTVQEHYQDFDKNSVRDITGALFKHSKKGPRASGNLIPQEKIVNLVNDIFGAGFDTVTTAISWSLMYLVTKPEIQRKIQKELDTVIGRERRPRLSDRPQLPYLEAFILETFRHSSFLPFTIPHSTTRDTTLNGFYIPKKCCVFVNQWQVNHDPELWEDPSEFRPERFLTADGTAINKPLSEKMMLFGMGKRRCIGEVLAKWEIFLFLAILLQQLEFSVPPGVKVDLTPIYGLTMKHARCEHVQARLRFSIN
# [3] = biological target: Heat shock protein HSP 90-alpha (Homo sapiens, UniProt P07900); format: functional, organism-based
# P388/ADR = assay: cells; format: functional; settings: Mus musculus
# P388 = assay: cells; format: functional; settings: Mus musculus
# SN12K1 = assay: cells; format: functional; settings: Homo sapiens
# [4] = biological target: T5, Zinc finger protein mex-5 (Caenorhabditis elegans, UniProt Q9XUB2); assay: MEX-5/TCR-2 RNA interaction inhibitors, dose response, biochemical, C. elegans, fluorescence polarization (AID 1960)
# T5 sequence (Q9XUB2 whole entry): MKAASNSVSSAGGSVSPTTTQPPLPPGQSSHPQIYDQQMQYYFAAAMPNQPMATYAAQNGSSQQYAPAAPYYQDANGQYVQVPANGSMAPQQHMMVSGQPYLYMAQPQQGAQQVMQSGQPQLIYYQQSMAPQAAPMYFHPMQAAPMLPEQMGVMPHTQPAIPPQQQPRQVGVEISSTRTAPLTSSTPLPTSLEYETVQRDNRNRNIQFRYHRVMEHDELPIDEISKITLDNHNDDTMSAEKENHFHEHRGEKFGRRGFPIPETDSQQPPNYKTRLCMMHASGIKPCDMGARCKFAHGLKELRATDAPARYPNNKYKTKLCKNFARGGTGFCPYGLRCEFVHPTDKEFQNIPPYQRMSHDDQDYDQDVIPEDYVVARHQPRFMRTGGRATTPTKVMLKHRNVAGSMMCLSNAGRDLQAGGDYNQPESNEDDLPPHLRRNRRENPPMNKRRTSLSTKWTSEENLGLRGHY
# [5] = biological target: T6, RNA-binding protein pos-1 (Caenorhabditis elegans, UniProt G5EF15); assay: inhibitors of POS-1/mex-3 RNA binding, dose response, biochemical, fluorescence polarization (AID 1964);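 also: purified POS-1 fused to maltose binding protein made in E. coli; potency of compounds blocking POS-1 binding to fluorescent RNA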
# T6 sequence (G5EF15 whole entry): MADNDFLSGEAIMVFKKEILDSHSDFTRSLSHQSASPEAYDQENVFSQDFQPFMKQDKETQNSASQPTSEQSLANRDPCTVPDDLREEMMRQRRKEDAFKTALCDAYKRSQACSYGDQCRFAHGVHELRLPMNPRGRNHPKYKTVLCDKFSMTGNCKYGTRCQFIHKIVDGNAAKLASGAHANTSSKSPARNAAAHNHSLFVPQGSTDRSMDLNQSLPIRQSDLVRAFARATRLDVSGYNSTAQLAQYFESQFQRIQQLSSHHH
# [6] = biological target: T7, High affinity choline transporter 1 (Homo sapiens, UniProt Q9GZV3); assay: CHT inhibitors, dose response, cell-based, 5-point CRC, membrane potential dye (AID 504840); format: functional
# T7 sequence (Q9GZV3 whole entry): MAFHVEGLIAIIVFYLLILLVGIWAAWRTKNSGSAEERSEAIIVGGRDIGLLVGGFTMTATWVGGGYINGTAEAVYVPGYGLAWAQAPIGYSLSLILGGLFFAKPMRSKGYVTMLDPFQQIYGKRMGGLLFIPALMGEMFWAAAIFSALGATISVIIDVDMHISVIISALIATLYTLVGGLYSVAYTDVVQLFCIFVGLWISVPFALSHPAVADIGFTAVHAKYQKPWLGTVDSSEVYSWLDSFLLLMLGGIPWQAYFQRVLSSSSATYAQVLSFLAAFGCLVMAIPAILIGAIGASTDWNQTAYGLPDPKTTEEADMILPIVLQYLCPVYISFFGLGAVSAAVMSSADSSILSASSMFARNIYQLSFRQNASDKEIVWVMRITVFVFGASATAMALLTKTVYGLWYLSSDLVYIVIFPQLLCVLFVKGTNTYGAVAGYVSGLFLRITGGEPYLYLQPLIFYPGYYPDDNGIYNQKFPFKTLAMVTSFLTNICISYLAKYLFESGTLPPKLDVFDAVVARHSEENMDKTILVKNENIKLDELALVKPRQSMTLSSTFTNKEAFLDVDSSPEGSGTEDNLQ
compound,measurement,setting,value
O=c1c(Cc2ccc(F)cc2)c(O)ccn1CCc1c[nH]cn1,EC50,[1],5.31 µM (active)
C=CCn1c(SCc2nc3scc(-c4ccccc4)c3c(=O)[nH]2)nnc1-c1ccccc1F,IC50,Cysteine protease ATG4B,15.9 µM (active)
same,IC50,Phospholipase A2,12.1 µM (active)
CSc1nc2nccc(-c3ccc(Cl)cc3)n2n1,IC50,[2],11.3 µM (active)
CCCCCN1CC(=O)C(c2nc(-c3ccc(Cl)cc3)cs2)=C1N,IC50,[2],5.38 µM (active)
same,AC50,Cytochrome P450 2C19,1.12 µM (inconclusive)
same,AC50,Cytochrome P450 1A2,1.58 µM (inconclusive)
Cc1cccc(N2CCN(C(=O)C3CCN(c4ncnc5c4nc4n5CCCCC4)CC3)CC2C)c1 (stereo unspecified),IC50,Cysteine protease ATG4B,15.3 µM (active)
same,IC50,Phospholipase A2,11.1 µM (active)
COc1ccc(C(CNC(=O)c2cc(C)on2)N(C)C)cc1 (stereo unspecified),EC50,[1],0.376 µM (active)
COc1ccc(C(CNC(=O)C2CCN(S(=O)(=O)c3ccc(F)cc3)CC2)N(C)C)cc1 (stereo unspecified),EC50,[1],2.11 µM (active)
O=C(/C=C/c1ccnc2ccccc12)c1cccs1,AC50,[3],5.63 µM (active)
O=C(c1ccc(Cl)cc1)N1CCN(c2ccc(F)cc2)CC1,AC50,[3],5.2 µM (active)
CC(=O)Nc1ccc(CN2CCCC(C(=O)c3ccc(C(F)(F)F)cc3)C2)cc1 (stereo unspecified),EC50,[1],2.66 µM (active)
CC12CCC(C(=O)N3CC=CCC3)(OC1=O)C2(C)C (stereo unspecified),GI50,P388/ADR,> 100 µM (inactive)
same,GI50,P388,> 100 µM (inactive)
same,GI50,SN12K1,> 100 µM (inactive)
O=C[C@@H](CO)O[C@H](C=O)c1c[nH]c(=O)[nH]c1=O,GI50,P388/ADR,38.1 µM (inactive)
same,GI50,P388,> 80.7 µM (inactive)
same,GI50,SN12K1,76.6 µM (inactive)
CCCC(=O)OCC1OC(n2ccc(N)nc2=O)C(OC(=O)CCC)C1OC(=O)CCC (stereo unspecified),GI50,P388/ADR,11.1 µM (inactive)
same,GI50,P388,0.2 µM (active)
same,GI50,SN12K1,1.86 µM (inactive)
CC(C)Cc1ccc(C(C)C(=O)N2CCN(/C=C/c3ccccc3)CC2)cc1 (stereo unspecified),GI50,P388/ADR,10.9 µM (inactive)
same,GI50,P388,7.35 µM (inactive)
same,GI50,SN12K1,13.7 µM (inactive)
COC(=O)c1ccc(/N=N/N(C)COc2ccc(Br)cc2)cc1,GI50,P388/ADR,32.8 µM (inactive)
same,GI50,P388,27 µM (inactive)
same,GI50,SN12K1,> 66.8 µM (inactive)
O=C(N/N=C/c1cccn1-c1cccc(C(=O)O)c1)Nc1ccccc1,IC50,[2],8.69 µM (active)
same,EC50,[4],> 300 µM (not active)
same,EC50,[5],> 300 µM (not active)
O/N=N/c1cnccn1,GI50,P388/ADR,668 µM (inactive)
same,GI50,P388,> 721 µM (inactive)
same,GI50,SN12K1,1070 µM (inactive)
Oc1c(Cl)cc(Cl)cc1/C=N/c1ccc2c(c1)OCCO2,IC50,Cysteine protease ATG4B,7.3 µM (active)
same,IC50,Phospholipase A2,11.2 µM (active)
same,IC50,[6],10 µM (active)
CCOC(=O)C1=C(C)N=c2s/c(=C\c3cccc(OCC(=O)O)c3)c(=O)n2C1c1ccccc1OC (stereo unspecified),IC50,[2],4.32 µM (active)
Cc1ccc2nc(N/N=C/c3ccccc3F)nc(-c3ccccc3)c2c1,IC50,Cysteine protease ATG4B,17.9 µM (active)
same,IC50,Phospholipase A2,9.15 µM (active)
